Where “and” joins values, the source holds several entries; their conditions need not be identical. Equal entries are not always repeated. Where two headings read alike, the source gives them in different places.
Legend:
[1] = system: sunflower (Sun Gold-Golden Yellow Double) seed; conditions: for Seedling Height / germination: sterilized Caribbean Beach Sand
Method: Four vessels were filled with approximately 800 cm^3 of Paver Construction Sand (non-sterile) and two vessels contained sterilized Caribbean beach sand (see FIG. 23).
Each vessel contained one sunflower (Sun Gold-Golden Yellow Double) seed placed at a depth of 5.0 cm below soil surface. Each vessel was then watered with 100 ml spring water and positioned on its own drainage tray on a shelf approximately 60 cm below two 33 watt grow light tubes (no sunlight) equipped with a timer set for 16 hours light on, 6 hours light off.

[2] = system: Gladioli bulb
Method: Each vessel was filled with approximately 800 cm^3 of Pro-Mix® Potting Soil (see FIGS. 20 and 21).
Each vessel contained one Gladioli bulb placed at a depth of 10 cm below soil surface. Each vessel was then watered with 100 ml spring water and positioned on its own drainage tray on a shelf approximately 60 cm below two 33 watt grow light tubes (no sunlight) equipped with a timer set for 16 hours light on, 6 hours light off.

[3] = system: sweet corn, variety Sugar Dots; conditions: for Seedling Height: two seedlings
Method: The tubing intersected the vessel through the diameter at a height of 3.5 cm above the base. […] Each vessel was filled with approximately 902 cm^3 of Iowa Crop Soil (soil depth =9.5 cm) that had been collected from an Iowa commercial cornfield. The soil in each vessel was tested for pH using a Chemetrics pH meter dipped in a mixture of 40 ml distilled water and 100 grams of soil.
Each vessel was seeded with two seeds of sweet corn, variety Sugar Dots, (using the seed positions shown in FIG. 9) placed at a depth of 2.54 cm below soil surface. Each vessel was then watered with 100 ml spring water and positioned on its own drainage tray on a shelf approximately 10 cm below three 33 watt grow light tubes (no sunlight) equipped with a timer set for 16 hours light on, 6 hours light off. White reflective covering was placed on the wall immediately behind the samples, with an aluminum foil hood extending over the light fixture to reflect light downward onto the vessels.

[4] = system: sweet corn, variety Sugar Dots; conditions: for Seedling Height: two seedlings; remark: listed apart in the source
Method: The tubing intersected the vessel through the diameter at a height of 1.5 cm above the base. […] Each vessel was filled with approximately 523 cm^3 of Iowa Crop Soil (soil depth =5.5 cm) that had been collected from an Iowa commercial cornfield. The soil in each vessel was tested for pH using a Chemetrics pH meter dipped in a mixture of 40 ml distilled water and 100 grams of soil.
Each vessel was seeded with two seeds of sweet corn, variety Sugar Dots, placed (illustrated in FIG. 9) at a depth of 2.54 cm below soil surface. Each vessel was then watered with 100 ml spring water and positioned on its own drainage tray on a shelf approximately 10 cm below two 33 watt grow light tubes (no sunlight) equipped with a timer set for 16 hours light on, 6 hours light off. White reflective covering was placed on the wall immediately behind the samples, with an aluminum foil hood extending over the light fixture to reflect light downward onto the vessels.

[5] = system: Gladioli bulb; conditions: liquid butane injected into the rhizosphere, halted Day 19
Method: Each vessel was filled with approximately 800 cm^3 of Pro-Mix® Potting Soil 214.
Each vessel contained one Gladioli bulb 216 placed at a depth of 10 cm below soil surface. FIG. 21 is a photograph showing the bulbs and vessels. Each vessel was then watered with 100 ml spring water and positioned on its own drainage tray on a shelf approximately 60 cm below two 33 watt grow light tubes (no sunlight) equipped with a timer set for 16 hours light on, 6 hours light off.

[6] = Table 7 Day No. 6 (final day), Butane Bulb 1 and 2

In the case of `CCCC` [Butane, n-butane], the “root development compared with control plant” value ([1]; Day 23, Paver Sand, unearthed) is reported as “thicker and more robust”, the “Seedling Height” value ([1]; Day No. 23, Paver Sand (non-sterile), two plants) is reported as 20.0 cm and the “Seedling Height / germination” value ([1]; Day No. 23) is reported as “no seed growth or”. The “Seedling Height / germination” value ([1]; Day No. 23, listed as butane) was “No seed growth or germination”, the “Seedling Height, secondary shoot” value ([2]; Table 7 Day No. 1, Butane Bulb 2) was “Secondary shoot 3.0 cm” and the “Seedling Height, main shoot” value [2, 6] was 27.0 cm and 29.0 cm. For the same compound, the “Seedling Height, secondary shoot” value [2, 6] was 14.0 cm and 23.0 cm, the “root development compared with control plant” value ([2]; butane enrichment for 17 days, bulbs unearthed) was “greater” and the bulb shoot bifurcation ([2]; butane gas injection, shoots directly from the bulb sphere) was “conditioned to grow two plants”. The “average height taller than the control corn plant” value ([3]; Day 16) was 55%, the “average growth in height” value ([3]; Day 16, average of two plants) was 23.3 cm and the “Seedling Height” value ([3]; Day No. 5) was 0.5 cm and 1.0 cm. The “Seedling Height” value ([3]; Day No. 6) was 3.0 cm, 3.0 cm, the “Seedling Height” value ([3]; Day No. 7) was 4.0 cm, 4.0 cm and the “Seedling Height” value ([3]; Day No. 8) was 6.0 cm and 5.7 cm. For the same compound, the “Seedling Height” value ([3]; Day No. 9) was 8.0 cm and 7.2 cm, the “Seedling Height” value ([3]; Day No. 10) was 11.0 cm and 9.1 cm and the “Seedling Height” value ([3]; Day No. 11) was 16.0 cm and 12 cm. For the same compound, the “Seedling Height” value ([3]; Day No. 12) was 18.0 cm and 15.5 cm, the “Seedling Height” value ([3]; Day No. 13) was 19.0 cm and 16.7 cm and the “Seedling Height” value ([3]; Day No. 14) was 20.1 cm and 17.3 cm. The “Seedling Height” value ([3]; Day No. 15) was 22.0 cm and 18.0 cm, the “Seedling Height” value ([3]; Day No. 16) was 27.0 cm and 19.6 cm and the “time of sprouting compared with control plant” value ([3]; in vivo) was “three days earlier”. For the same compound, the stem thickness ([3]; last day of growth (Day 16), taller plant, shorter plant) was 0.5 cm and 0.3 cm, the average growth rate ([3]; over the sixteen-day period, average of two plants) was 1.45 cm per day and the root branch length ([3]; seen through clear vessels) was “up to 3 cm”. For the same compound, the “faster growth rate than the control plant” value ([3]; sixteen-day period) was 54%, the seed sprouting ([3]; two seeds planted) was “sprouted into seedlings” and the “Seedling Height” value ([4]; Day No. 6, n-butane injected into root zone) was 0.5 cm and 0.8 cm. For the same compound, the “Seedling Height” value ([4]; Day No. 7) was 4.0 cm and 4.5 cm, the “Seedling Height” value ([4]; Day No. 8) was 7.0 cm and 6.0 cm and the “Seedling Height” value ([4]; Day No. 9 (final day)) was 11.0 cm and 6.8 cm. The “Seedling Height” value ([4]; Day No. 9 (final day), listed as butane) was 11 cm and 6.8 cm, the “root spread compared with control plants” value ([4]; seen through clear vessels) was “greater and more complex degree horizontally” and the “effect of liquid butane injection on growing plants” value ([5]; listed as Liquid butane) was “into the rhizosphere killed the”. The “effect of liquid butane injection on growing plants” value ([5]; listed as liquid butane) was “killed”.

Source: US20050000154A1, “Apparatus and methods for enhanced plant and lawn growth using alkane injection” (Global BioSciences, Inc., priority 2001, published 2005)
